Laboratory results taken from patent publication US8999664B2, “Method of improving salmon meat color” (JX Nippon Oil & Energy Corporation, priority 2006, dated 2015).

Experiments:
[1] = Carotenoid content in fish flesh of silver salmon by HPLC; type: in vivo, Oncorhynchus kisutch; conditions: for Ratio to astaxanthin: silver salmon fish flesh; for Ratio to astaxanthin / Content in fish flesh: 6 months; for Content in fish flesh / concentration at 6 months: silver salmon, average of 10 fish; for concentration at 6 months: silver salmon (Oncorhynchus kisutch), fish flesh, oral
Procedure: In the examples, the quantification of the carotenoid colorant was performed using high performance liquid chromatography (HPLC). Two columns of Wakosil-II 5 SIL-100 φ4.6×250 mm (produced by Wako Pure Chemical Industries, Ltd.) were connected to each other. An n-hexane:tetrahydrofuran:methanol (40:20:1) mixed solution was used as a mobile phase. A constant room temperature and a flow rate of 1.0 ml/min were used. The detection was performed at a wavelength of 470 nm. The feed or fish flesh was milled, and then the colorant was extracted with a tetrahydrofuran:methanol (20:1) mixed solution. The colorant was appropriately diluted with the mobile phase and analyzed by HPLC. 300 silver salmons (Oncorhynchus kisutch) each weighing about 200 g were cultivated as a test division of being fed with the above-described fermented product, and another 300 silver salmons each weighing about 200 g were cultivated as a test division of being fed with the above-described synthetic product. The salmons were fed in satiation in a marine fish pen for 6 months. After the 6 months of cultivating, 10 fish of each test division were weighed. […] The fish were immediately killed by cutting medulla and frozen for preservation. After being thawed, the fish flesh was milled by a coffee mill, and a part thereof was put into a polyethylene bag to measure the color tone thereof by a spectrometer CM-508i (Minolta). […] From a part of the milled fish flesh, the carotenoid colorant was extracted, and analyzed in terms of the content of each carotenoid compound by HPLC.

[2] = Carotenoid content in fish flesh of rainbow trout by HPLC; type: in vivo, Oncorhynchus mykiss; conditions: for Ratio to astaxanthin: rainbow trout fish flesh; for Ratio to astaxanthin / Content in fish flesh: 3 months; for Content in fish flesh / concentration at 3 months: rainbow trout, average of 12 fish; for concentration at 3 months: rainbow trout (Oncorhynchus mykiss), fish flesh, oral
Procedure: In the examples, the quantification of the carotenoid colorant was performed using high performance liquid chromatography (HPLC). Two columns of Wakosil-II 5 SIL-100 φ4.6×250 mm (produced by Wako Pure Chemical Industries, Ltd.) were connected to each other. An n-hexane:tetrahydrofuran:methanol (40:20:1) mixed solution was used as a mobile phase. A constant room temperature and a flow rate of 1.0 ml/min were used. The detection was performed at a wavelength of 470 nm. The feed or fish flesh was milled, and then the colorant was extracted with a tetrahydrofuran:methanol (20:1) mixed solution. The colorant was appropriately diluted with the mobile phase and analyzed by HPLC. 50 rainbow trouts (Oncorhynchus mykiss) each weighing about 100 g were cultivated in a water tank as a test division of being fed with the above-described fermented product, and another 50 rainbow trouts each weighing about 100 g were cultivated in a water tank as a test division of being fed with the above-described synthetic product. The trouts of each test division were fed in satiation in fresh water for 3 months. After the 3 months of cultivating, 12 fish of each test division were weighed. […] The fish were immediately killed by cutting medulla. […] After the measurement, the fish flesh was frozen for preservation. After being thawed, the fish flesh of the 12 fish of each test division was analyzed in terms of the content of each carotenoid compound.

[3] = Carotenoid content in fish flesh of Atlantic salmon by HPLC; type: in vivo, Salmo salar; conditions: for Ratio to astaxanthin: Atlantic salmon fish flesh; for Ratio to astaxanthin / Content in fish flesh: 12 months; for Content in fish flesh / concentration at 12 months: Atlantic salmon, flesh frozen 1 month, average of 20 fish; for concentration at 12 months: Atlantic salmon (Salmo salar), oral
Procedure: In the examples, the quantification of the carotenoid colorant was performed using high performance liquid chromatography (HPLC). Two columns of Wakosil-II 5 SIL-100 φ4.6×250 mm (produced by Wako Pure Chemical Industries, Ltd.) were connected to each other. An n-hexane:tetrahydrofuran:methanol (40:20:1) mixed solution was used as a mobile phase. A constant room temperature and a flow rate of 1.0 ml/min were used. The detection was performed at a wavelength of 470 nm. The feed or fish flesh was milled, and then the colorant was extracted with a tetrahydrofuran:methanol (20:1) mixed solution. The colorant was appropriately diluted with the mobile phase and analyzed by HPLC. 400 Atlantic salmons (Salmo salar) each weighing about 300 g were cultivated as a test division of being fed with the above-described fermented product, and another 400 Atlantic salmons each weighing about 300 g were cultivated as a test division of being fed with the above-described synthetic product. The salmons were fed in satiation in a marine fish pen for 12 months. After the 12 months of cultivating, 20 fish of each test division were landed and weighed. […] The fish were immediately killed by cutting medulla, and the fish flesh was measured in terms of the color tone by a spectrometer. […] After the measurement, the fish flesh was frozen for preservation for 1 month. After being thawed, the fish flesh of the 20 fish of each test division was analyzed in terms of the content of each carotenoid compound.

[4] = Carotenoid content in fish flesh of king salmon by HPLC; type: in vivo, Oncorhynchus tshawytscha; conditions: for Ratio to astaxanthin: king salmon fish flesh; for Ratio to astaxanthin / Content in fish flesh: 3 months; for Content in fish flesh / concentration at 3 months: king salmon, flesh frozen 1 month, average of 15 fish; for concentration at 3 months: king salmon (Oncorhynchus tshawytscha), oral
Procedure: In the examples, the quantification of the carotenoid colorant was performed using high performance liquid chromatography (HPLC). Two columns of Wakosil-II 5 SIL-100 φ4.6×250 mm (produced by Wako Pure Chemical Industries, Ltd.) were connected to each other. An n-hexane:tetrahydrofuran:methanol (40:20:1) mixed solution was used as a mobile phase. A constant room temperature and a flow rate of 1.0 ml/min were used. The detection was performed at a wavelength of 470 nm. The feed or fish flesh was milled, and then the colorant was extracted with a tetrahydrofuran:methanol (20:1) mixed solution. The colorant was appropriately diluted with the mobile phase and analyzed by HPLC. 100 king salmons (Oncorhynchus tshawytscha) each weighing about 200 g were cultivated as a test division of being fed with the above-described fermented product, and another 100 king salmons each weighing about 200 g were cultivated as a test division of being fed with the above-described synthetic product. The salmons were fed in satiation in a marine fish pen for 3 months. After the 3 months of cultivating, 15 fish of each test division were sampled and weighed. […] The fish were immediately killed by cutting medulla. […] After the measurement, the fish flesh was frozen for preservation for 1 month. After being thawed, the fish flesh of the fish of each test division was analyzed in terms of the content of each carotenoid compound.

Molecule | Ratio to astaxanthin ([1]; Fermented product division) | Content in fish flesh ([1]; Fermented product division) | Content in fish flesh ([1]; Synthetic product division) | Ratio to astaxanthin ([2]; Fermented product division) | Content in fish flesh ([2]; Fermented product division) | Content in fish flesh ([2]; Synthetic product division) | Ratio to astaxanthin ([3]; Fermented product division) | Content in fish flesh ([3]; Fermented product division) | Content in fish flesh ([3]; Synthetic product division) | Ratio to astaxanthin ([4]; Fermented product division) | Content in fish flesh ([4]; Fermented product division) | Content in fish flesh ([4]; Synthetic product division) | concentration at 6 months ([1]; 43.2 mg/kg feed, Fermented product division) [ng/g] | concentration at 6 months ([1]; 44.3 mg/kg feed, Synthetic product division) [ng/g] | concentration at 3 months ([2]; 63.2 mg/kg feed, Fermented product division) [ng/g] | concentration at 3 months ([2]; 64.6 mg/kg feed, Synthetic product division) [ng/g] | concentration at 12 months ([3]; 79.8 mg/kg feed, Fermented product division) [ng/g] | concentration at 12 months ([3]; 81.6 mg/kg feed, Synthetic product division) [ng/g] | concentration at 3 months ([4]; 70.3 mg/kg feed, Synthetic product division) [ng/g] | concentration at 3 months ([4]; 72.7 mg/kg feed, Fermented product division) [ng/g]
CC1=C(/C=C/C(C)=C/C=C/C(C)=C/C=C/C=C(C)/C=C/C=C(C)/C=C/C2=C(C)C(=O)[C@@H](O)CC2(C)C)C(C)(C)CCC1 [3-hydroxyequinenone] | 0.2 or less % | 0.02 or less mg/kg | 0.02 or less mg/kg | 0.6 or less % | 0.02 or less mg/kg | 0.02 or less mg/kg | 0.5 or less % | 0.02 or less mg/kg | 0.02 or less mg/kg | 0.5 or less % | 0.02 or less mg/kg | 0.02 or less mg/kg |  |  |  |  |  |  |  | 
CC1=C(/C=C/C(C)=C/C=C/C(C)=C/C=C/C=C(C)/C=C/C=C(C)/C=C/C2=C(C)C(=O)[C@@H](O)CC2(C)C)C(C)(C)C[C@H](O)C1 [Adonixanthin] | 23.1% | 2.4 mg/kg | 0.02 or less mg/kg | 2.9% | 0.1 mg/kg | 0.02 or less mg/kg | 4.9% | 0.2 mg/kg | 0.02 or less mg/kg | 6.5% | 0.3 mg/kg | 0.02 or less mg/kg |  |  |  |  |  |  |  | 
CC1=C(/C=C/C(C)=C/C=C/C(C)=C/C=C/C=C(C)/C=C/C=C(C)/C=C/C2=C(C)C(=O)[C@@H](O)CC2(C)C)C(C)(C)C[C@H](O)C1=O [Astaxanthin] | 100% |  |  | 100% |  |  | 100% |  |  | 100% |  |  | 10400 | 12700 | 3400 | 6300 | 4100 | 6200 | 7200 | 4600
CC1=C(/C=C/C(C)=C/C=C/C(C)=C/C=C/C=C(C)/C=C/C=C(C)/C=C/C2=C(C)C(=O)CCC2(C)C)C(C)(C)CCC1=O [Canthaxanthin] | 1.0% | 0.1 mg/kg | 0.02 or less mg/kg | 11.8% | 0.4 mg/kg | 0.02 or less mg/kg | 9.8% | 0.4 mg/kg | 0.02 or less mg/kg | 6.5% | 0.3 mg/kg | 0.02 or less mg/kg |  |  |  |  |  |  |  | 
CC1=C(/C=C/C(C)=C/C=C/C(C)=C/C=C/C=C(C)/C=C/C=C(C)/C=C/C2=C(C)C(=O)CCC2(C)C)C(C)(C)CCC1 [Equinenone] | 0.2 or less % | 0.02 or less mg/kg | 0.02 or less mg/kg | 0.6 or less % | 0.02 or less mg/kg | 0.02 or less mg/kg | 0.5 or less % | 0.02 or less mg/kg | 0.02 or less mg/kg | 0.5 or less % | 0.02 or less mg/kg | 0.02 or less mg/kg |  |  |  |  |  |  |  | 
CC1=C(/C=C/C(C)=C/C=C/C(C)=C/C=C/C=C(C)/C=C/C=C(C)/C=C/C2=C(C)C(=O)[C@@H](O)CC2(C)C)C(C)(C)CCC1=O [Phoenicoxanthin] | 11.5% | 1.2 mg/kg | 0.02 or less mg/kg | 67.6% | 2.3 mg/kg | 0.02 or less mg/kg | 41.5% | 1.7 mg/kg | 0.02 or less mg/kg | 45.7% | 2.1 mg/kg | 0.02 or less mg/kg |  |  |  |  |  |  |  | 
CC1=C(/C=C/C(C)=C/C=C/C(C)=C/C=C/C=C(C)/C=C/C=C(C)/C=C/C2=C(C)CCCC2(C)C)C(C)(C)CCC1 [β-carotin] | 0.2 or less % | 0.02 or less mg/kg | 0.02 or less mg/kg | 0.6 or less % | 0.02 or less mg/kg | 0.02 or less mg/kg | 0.5 or less % | 0.02 or less mg/kg | 0.02 or less mg/kg | 0.5 or less % | 0.02 or less mg/kg | 0.02 or less mg/kg |  |  |  |  |  |  |  | 
Asteroidenone | 1.9% | 0.2 mg/kg | 0.02 or less mg/kg | 2.9% | 0.1 mg/kg | 0.02 or less mg/kg | 2.4% | 0.1 mg/kg | 0.02 or less mg/kg | 2.2% | 0.1 mg/kg | 0.02 or less mg/kg |  |  |  |  |  |  |  | 
